Here are results for 2 molecules from patent US11406592B2, “Drug delivery methods, structures, and compositions for nasolacrimal system” (Mati Therapeutics Inc., priority 2006, dated 2022).

Series [1] is described as follows: Bimatoprost bulk sample elution, normalized to ng per device per day. It counts as physicochemical. The note with it: for zero order elution rate: about 90 days. The method, then:
Bulk samples of 1% Bimatoprost having a known diameter of 0.076 cm (0.76 mm) were prepared. The height of each sample was determined from the weight and known diameter of the sample.
The calculated heights ranged from 0.33 cm to 0.42 cm. The exposed surface area on each end of each bulk sample was approximately 0.045 cm^2, providing volumes of 0.019 cm^3 and 0.015 cm^3 for the 0.42 and 0.33 cm samples, respectively. The exposed an exposed surface area of samples calculated from the height and diameter without a drug sheath was approximately 0.1 cm^2. Three formulations were evaluated: 1) silicone 4011, 1% Bimatoprost, 0% surfactant; 2) silicone 4011, 1% Bimatoprost, approximately 11% surfactant; and 3) silicone 4011, 1% Bimatoprost, approximately 33% surfactant. The elution data measured for the bulk samples with formulation 1, 2 and 3 were normalized to ng per device per day (ng/device/day) assuming a surface area of the bulk device is 0.1 cm^2 and the surface area of the clinical device is 0.00078 cm^2 (0.3 mm diameter). […] The normalized elution profile is about 10 ng per day. […] Similar formulations can be used with drug core sheaths and a shaped exposed surface of the core exposed to the tear to increase the exposed surface area as described above and deliver the drug in therapeutic amounts over an extended period.
In some embodiments, the core can comprise a 0.76 mm diameter core with an exposed surface diameter of 0.76 mm, corresponding to an exposed surface area of 0.0045 cm^2. The core can be covered with a sheath to define the exposed surface of the core as described above The normalized elution profile for such a device, based on the bulk sample data above, is approximately 6 times (0.0045 cm^2/0.00078 cm^2) the elution profile for the device with a 0.3 mm diameter exposed surface area. Thus, a zero order elution profile with an elution rate of about 60 ng per day can be obtained over a period of about 90 days. If the exposed surface area is increased to about 0.0078 cm2, for example with many of the exposed surface shapes as described above, the zero order elution rat is about 100 ng per day over a period of about 90 days. The concentration can also be increased from 1%. Similar elution profiles can be obtained with Latanoprost.

A short description of series [2]: Latanoprost drug core elution study (in vitro), 7.4 pH buffer, HPLC. As to conditions: for Duration: calculated time when ~10% of original drug remains. It counts as physicochemical. The source says:
Drug cores as described above have been fabricated with different cross sectional sizes of 0.006 inches, 0.012 inches, and 0.025 inches, and drug concentrations of 5%, 10% and 20% in a silicone matrix. Theses drug cores can be made with a Syringe Tube and Cartridge Assembly, Mixing Latanoprost with Silicone, and Injecting the mixture into a polyimide tube which is cut to desired lengths and sealed. The length of the drug cores were approximately 0.80 to 0.95 mm, which for a diameter of 0.012 inches (0.32 mm) corresponds to total Latanoprost content in the drug cores of approximately 3.5 μg, 7 μg and 14 μg for concentrations of 5%, 10% and 20%, respectively.
Syringe Tube and Cartridge Assembly. 1. Take polyimide tubing of three different diameters 0.006 inches, 0.0125 inches and 0.025 inches. 2. Cut polyimide tubing of different diameters to ˜15 cm length. 3. Insert Polyimide tubes into a Syringe Adapter. 4. Adhesive bond polyimide tube into luer adapter (Loctite, low viscosity UV cure). 5. Trim end of assembly. 6. Clean the cartridge assembly using distilled water and then with methanol and dry it in oven at 60° C.
Mix Latanoprost with Silicone. Prepare Latanoprost. Latanoprost is provided as a 1% solution in methylacetate. Place the appropriate amount of solution into a dish and using a nitrogen stream, evaporate the solution until only the Latanoprost remains. Place the dish with the Latanoprost oil under vacuum for 30 minutes. Combine Latanoprost with silicone. Prepare three different concentrations of Latanoprost (5%, 10% and 20%) in silicon Nusil 6385 and inject it into tubing of different diameters (0.006 in, 0.012 in and 0.025 inches) to generate 3×3 matrixes. The percent of Latanoprost to silicone is determined by the total weight of the drug matrix. Calculation: Weight of Latanoprost/(weight of Latanoprost+weight of silicone)×100=percent drug.
Inject tube. 1. Insert Cartridge and Polyimide tubes assembly into 1 ml syringe. 2. Add one drop of catalyst, (MED-6385 Curing Agent) in the syringe. 3. Force excess catalyst out of the polyimide tube with clean air. 4. Fill syringe with silicone drug matrix. 5. Inject tube with drug matrix until the tube is filled or the syringe plunger becomes too difficult to push. 6. Close off the distal end of the polyimide tube and maintain pressure until the silicone begins to solidify. 7. Allow to cure at room temperature for 12 hours. 8. Place under vacuum for 30 minutes. 9. Place tube in right size trim fixture (prepared in house to hold different size tubing) and cut drug inserts to length (0.80-0.95 mm).
Testing. Elution study (in vitro). 1. Place 10 plugs of same size and same concentration per centrifuge tube and add 1.5 ml of 7.4 pH buffer solution to it. 2. Change the solvent with fresh 7.4 pH buffer after appropriate time. 3. Take HPLC of the eluant at 210 nm with PDA detector 2996 using Sunfire C18, 3 mm×10 mm column (Waters Corporation, Milford, Mass.). Acetonitrile and water mixture is used for gradient elution. Calibration was done in house before and after each analysis, using in-house standards with precisely weighed concentration of Latanoprost. 4. Calculate the amount of drug release per day per device for different size tubings having different concentrations of Latanoprost. 5. Plot elution rate vs area and concentration for day 1 and day 14.

Series [3] is described as follows: Latanoprost elution from drug cores of four formulations (silicone 4011, 6385 and/or NaCl). As to conditions: formulations A-D, non-sterile drug cores. It counts as physicochemical. The source says:
Drug cores were manufactured as described above with Latanoprost and silicone 4011, 6385 and/or NaCl. Four formulations were manufactured as follows: A) silicone 4011, approximately 20% Latanoprost, and approximately 20% NaCL; B) silicone 4011, approximately 20% Latanoprost, and approximately 10% NaCl; C) silicone 4011, approximately 10% Latanoprost, and approximately 10% NaCl; and D) silicone 6385, approximately 20% Latanoprost. […] The results shown are for non-sterile drug cores. Similar results have been obtained with sterile drug cores of Latanoprost.

Series [4] has as its system IOP. As to conditions: cited from earlier work.

As for `CCNC(=O)CCC/C=C\C[C@@H]1[C@@H](/C=C/[C@@H](O)CCc2ccccc2)[C@H](O)C[C@@H]1O` [Bimatoprost], the release kinetics result in series [1] (each of formulations 1-3, from about ten days to about 90 days) is listed as “approximately zero order release kinetics”. In addition, the “zero order elution rate” value in series [1] (extrapolated from bulk data to 0.76 mm exposed surface diameter (0.0045 cm^2)) is “about 60 ng per day”; in series [1] (extrapolated from bulk data to exposed surface area about 0.0078 cm2) it was “about 100 ng per day”. Besides, the normalized elution profile result in series [1] (silicone 4011 with 1% Bimatoprost, formulations 1-3 (0%, 11%, 33% surfactant), normalized to 0.3 mm exposed surface diameter (0.00078 cm^2)) is reported as “about 10 ng per day”.
Take `CC(C)OC(=O)CCC/C=C\C[C@@H]1[C@@H](CC[C@@H](O)CCc2ccccc2)[C@H](O)C[C@@H]1O` [Latanoprost]: the “elution rate compared with the 14 μg core” value in series [2] (7 μg core (10%), 0.32 mm diameter, 0.95 mm long, from 10 to 20 days) is “comparable rates”. For the same molecule, the elution rate entry in series [2] (14 μg core (20%), 0.32 mm diameter, 0.95 mm long, from about 10 to 40 days) was “approximately 100 ng per day”; in series [3] (by 3 weeks (21 days)) it was “about 100 ng per device per day”. Moreover, the “initial elution of Latanoprost from the plug” value in series [2] (buffered saline elution system, initially) was “approximately 500 ng per day”. Further, in series [2] (buffered saline elution system, within 7-14 days, depending on initial concentration), the “elution of Latanoprost from the plug after drop-off” value is “approximately 100 ng/day”. Further, the “quantity of Latanoprost released” value was “about 200 ng” in series [2] (day 1, 0.006 inch diameter core (exposed surface area 0.02 mm^2)); about 400 ng in series [2] (day 1, 0.012 inch diameter core (exposed surface area 0.07 mm^2)); about 1200 ng in series [2] (day 1, 0.025 inch diameter core (exposed surface area 0.32 mm^2)); “about 25 ng” in series [2] (day 14, 0.006 inch diameter core (exposed surface area 0.02 mm^2)); about 100 ng in series [2] (day 14, 0.012 inch (0.32 mm) diameter core (exposed surface area 0.07 mm^2)); about 300 ng in series [2] (day 14, 0.025 inch diameter core (exposed surface area 0.32 mm^2)). Also, the Duration in series [2] (total Latanoprost content 3.5 μg) is on record as about 25 days; in series [2] (total Latanoprost content 7 μg) it was about 45 days; in series [2] (total Latanoprost content 14 μg), about 100 days. Also, the initial elution rate result in series [3] (initial) is on record as “approximately 300 ng per device per day”. In series [4] (about 200 ng of drug remaining on the eye after a drop of Xalatan), the “time effective in lowering IOP” value is reported as “at least 24 hours”. The “IOP reduction relative to the 50 μg/mL QD dose” value in series [4] (lowest doses of 12.5 μg/mL QD or 15 μg/mL BID) is recorded as 60-75%.
